Here are results for 9 molecules from patent US8188077B2, “Apoptosis-inducing agents for the treatment of cancer and immune and autoimmune diseases” (Abbott Laboratories, priority 2010, dated 2012).

The target in the test is T1, Bcl-2 protein (Homo sapiens, UniProt P10415, DELINS35-91DVEENRTEAPEGTESE, form not given).
T1 construct: fused on or other part: Bcl-xL (Q07817) residues 29-44 stand in place of Bcl-2's own unstructured loop 35-91; The C-terminal membrane anchor (208-239) is absent
The test can be described thus: Bcl-2 fluorescence polarization assay (FPA) binding. The following applies: 10 nM Bcl-2 protein, 1 nM fluorescein-labeled BAX peptide, room temperature, read-out: Bcl-2 FPA 11pt Ki. The protocol:
Assays for the inhibition of Bcl-2 were performed in 96-well microtiter plates. Compounds of the instant invention were diluted in DMSO to concentrations between […] and 10 pM and introduced into each well of the plate. A mixture totaling 125 µL per well of assay buffer (20 mM phosphate buffer (pH 7.4), 1 mM EDTA, 0.05% PF-68), 10 nM of Bcl-2 protein (prepared according to the procedure described in PNAS 2001, 98, 3012-3017), 1 nM fluorescein-labeled BAX peptide (prepared in-house), and the DMSO solution of the compound of the instant invention was shaken for 2 minutes and placed in a LJL Analyst (LJL Bio Systems, CA. Polarization was measured at room temperature using a continuous Fluorescein lamp (excitation 485 nm, emission 530 nm). Ki values were calculated using Microsoft Excel.

A value given as a limit tells only on which side of the number the result lay.

A word on the Ki: it is the dissociation constant of the complex between target and ligand, obtained from inhibition or displacement.

T1 sequence (P10415 with tags, fused parts or gaps with the stated changes): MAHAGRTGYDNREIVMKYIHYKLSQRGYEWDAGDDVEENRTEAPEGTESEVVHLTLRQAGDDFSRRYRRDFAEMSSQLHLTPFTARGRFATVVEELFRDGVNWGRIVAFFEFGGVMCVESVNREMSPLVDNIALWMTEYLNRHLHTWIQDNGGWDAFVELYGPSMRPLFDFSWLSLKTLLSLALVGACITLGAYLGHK

Turning to `CC1(C)[C@H]2C=C(c3ccccc3C=C3CCN(c4ccc(C(=O)NS(=O)(=O)c5ccc(NCC6CCOCC6)c([N+](=O)[O-])c5)cc4)CC3)[C@]1(C)CC2` [Example 61, N-({3-nitro-4-[(tetrahydro-2H-pyran-4-ylmethyl)amino]phenyl}sulfonyl)-4-(4-{2-[(1R,4R)-1,7,7-trimethylbicyclo[2.2.1]hept-2-en-2-yl]benzylidene}piperidin-1-yl)benzamide], the Ki is less than 20 nM.
`C[C@@H]1[C@@H](Nc2cccc(C=C3CCN(c4ccc(C(=O)NS(=O)(=O)c5ccc(NCC6CCOCC6)c([N+](=O)[O-])c5)cc4)CC3)c2)C[C@H]2C[C@@H]1C2(C)C` [Example 73, N-({3-nitro-4-[(tetrahydro-2H-pyran-4-ylmethyl)amino]phenyl}sulfonyl)-4-[4-(3-{[(1S,2S,3S,5R)-2,6,6-trimethylbicyclo[3.1.1]hept-3-yl]amino}benzylidene)piperidin-1-yl]benzamide]: the Ki was found to be 93.2 nM.
As for `C[C@@H]1[C@@H](N(C(=O)Cc2ccccc2)C2CCN(c3ccc(C(=O)NS(=O)(=O)c4ccc(NCC5CCCCC5)c([N+](=O)[O-])c4)cc3)CC2)C[C@H]2C[C@@H]1C2(C)C` [Example 5, N-({4-[(cyclohexylmethyl)amino]-3-nitrophenyl}sulfonyl)-4-(4-{(phenylacetyl)[(1S,2S,3S,5R)-2,6,6-trimethylbicyclo[3.1.1]hept-3-yl]amino}piperidin-1-yl)benzamide], the Ki is 59.2 nM.
Next, `C[C@@H]1[C@@H](N(C(=O)c2ccccc2)C2CCN(c3ccc(C(=O)NS(=O)(=O)c4ccc(NCC5CCCCC5)c([N+](=O)[O-])c4)cc3)CC2)C[C@H]2C[C@@H]1C2(C)C` [Example 3, 4-(4-{benzoyl[(1S,2S,3S,5R)-2,6,6-trimethylbicyclo[3.1.1]hept-3-yl]amino}piperidin-1-yl)-N-({4-[(cyclohexylmethyl)amino]-3-nitrophenyl}sulfonyl)benzamide]: 65 nM; `C[C@H]1[C@H]2C[C@H](CC2Nc2ccccc2CN2CCN(c3ccc(C(=O)NS(=O)(=O)c4ccc(NCC5CCOCC5)c([N+](=O)[O-])c4)cc3)CC2)C1(C)C` (stereo partly drawn) [Example 17, N-({3-nitro-4-[(tetrahydro-2H-pyran-4-ylmethyl)amino]phenyl}sulfonyl)-4-[4-(2-{[(1R,4R,6S)-5,5,6-trimethylbicyclo[2.2.1]hept-2-yl]amino}benzyl)piperazin-1-yl]benzamide]: 30.1 nM; `O=C(NS(=O)(=O)c1ccc(NCC2CCCCC2)c([N+](=O)[O-])c1)c1ccc(N2CCN(CC(=O)C34CC5CC(CC(C5)C3)C4)CC2)cc1` [Example 49, 4-(4-{2-[adamantan-1-yl]-2-oxoethyl}piperazin-1-yl)-N-({4-[(cyclohexylmethyl)amino]-3-nitrophenyl}sulfonyl)benzamide]: 342 nM.
Take `CC1(C)[C@H]2CCC(Nc3ccccc3CN3CCN(c4ccc(C(=O)NS(=O)(=O)c5ccc(NCC6CCOCC6)c([N+](=O)[O-])c5)cc4)CC3)[C@@H]1C2` (stereo partly drawn) [Example 18, 4-[4-(2-{[(1R,5S)-6,6-dimethylbicyclo[3.1.1]hept-2-yl]amino}benzyl)piperazin-1-yl]-N-({3-nitro-4-[(tetrahydro-2H-pyran-4-ylmethyl)amino]phenyl}sulfonyl)benzamide]: the Ki was less than 20 nM.
For `CC1(C)OB(c2ccccc2CN2CCN(c3ccc(C(=O)NS(=O)(=O)c4ccc(NCC5CCOCC5)c([N+](=O)[O-])c4)cc3)CC2)OC1(C)C` [Example 67, N-({3-nitro-4-[(tetrahydro-2H-pyran-4-ylmethyl)amino]phenyl}sulfonyl)-4-{4-[2-(4,4,5,5-tetramethyl-1,3,2-dioxaborolan-2-yl)benzyl]piperazin-1-yl}benzamide] the value was 4040 nM.
Next, `O=C(NS(=O)(=O)c1ccc(NC2CCOCC2)c([N+](=O)[O-])c1)c1ccc(N2CCN(C(=O)C34CC5CC(CC(C5)C3)C4)CC2)cc1` [Example 41, 4-{4-[adamantan-1-ylcarbonyl]piperazin-1-yl}-N-{[3-nitro-4-(tetrahydro-2H-pyran-4-ylamino)phenyl]sulfonyl}benzamide]: 5190 nM.
